This is an account of results in patent publication US10125134B2 (Mirati Therapeutics, Inc., priority 2016, dated 2018).

The target of assay [1] is KRas G12C (Homo sapiens, UniProt P01116, C118S/C51S/C80L/G12C). Kind of assay: KRas G12C Modification Assay (LCMS detection of covalent adduct). The class given is binding. Particulars: normalized percent of control; tested at 5 μM concentration for 3 hours. The method in brief: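 Cys-light KRas G12C mutant protein incubated with compound in K-Ras assay buffer, reactions quenched at set time points with 25 mM acetic acid and analysed by intact-protein LC/MS on a C-3 column. Deconvoluted mass heights expressed as percent of control (POC) relative to compound-free protein.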

Assay [2] has as its system NCI-H358 cells (express KRas G12C), Phospho-ERK. Kind of assay: Cellular inhibition of KRas G12C: Phospho-ERK in NCI-H358 cells. To be noted: Homo sapiens, pERK(Thr202/Tyr204) normalized with GAPDH, NCI-H358 cells, 3 hours, read-out: IC50. The format is cell-based. The method in brief: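 IC50 derived by 4-parameter fit of GAPDH-normalized pERK(Thr202/Tyr204) signal, as percent of DMSO control. Signal came from in-cell immunodetection with infrared secondaries after 3 h compound exposure of KRas G12C NCI-H358 cells at 0.5% DMSO.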

Like-named read-outs stand apart in the source and are kept apart here.

On to `C=CC(=O)N1CCN(c2nc(O[C@H](C)CN3CC[C@@H](OC)C3)nc3c2CCN(c2cc(O)cc4ccccc24)C3)CC1` [Example 63, 1-(4-(7-(3-hydroxynaphthalen-1-yl)-2-(((R)-1-((R)-3-methoxypyrrolidin-1-yl)propan-2-yl)oxy)-5,6,7,8-tetrahydropyrido[3,4-d]pyrimidin-4-yl)piperazin-1-yl)prop-2-en-1-one], for which the POC entry in assay [1] is reported as “C (“C”>50% POC)”. In addition, the half-inhibitory concentration (IC50) (as a rule, the point on the concentration scale where inhibition reaches its midpoint) in assay [2] (NCI-H358, 3 h) was over 1 µM.
The corresponding values for `C=CC(=O)N1CCN(c2nc(O[C@H](C)CN3CC[C@H](OC)C3)nc3c2CCN(c2cc(O)cc4ccccc24)C3)CC1` [Example 64, 1-(4-(7-(3-hydroxynaphthalen-1-yl)-2-(((R)-1-((S)-3-methoxypyrrolidin-1-yl)propan-2-yl)oxy)-5,6,7,8-tetrahydropyrido[3,4-d]pyrimidin-4-yl)piperazin-1-yl)prop-2-en-1-one] are “C (“C”>50% POC)” and 0.0001 to 1 µM.
The corresponding values for `C=CC(=O)N1CCN(c2nc(O[C@H](C)CN3CC[C@H](O)C3)nc3c2CCN(c2cc(O)cc4ccccc24)C3)CC1` [Example 65, 1-(4-(7-(3-hydroxynaphthalen-1-yl)-2-(((R)-1-((S)-3-hydroxypyrrolidin-1-yl)propan-2-yl)oxy)-5,6,7,8-tetrahydropyrido[3,4-d]pyrimidin-4-yl)piperazin-1-yl)prop-2-en-1-one] are “C (“C”>50% POC)” and over 1 µM.
As for `C=CC(=O)N1CCN(c2nc(O[C@H]3CCCN(C)C3)nc3c2CCN(c2cc(O)cc4ccccc24)C3)CC1` [Example 66, (S)-1-(4-(7-(3-hydroxynaphthalen-1-yl)-2-((1-methylpiperidin-3-yl)oxy)-5,6,7,8-tetrahydropyrido[3,4-d]pyrimidin-4-yl)piperazin-1-yl)prop-2-en-1-one], the POC entry in assay [1] is reported as “C (“C”>50% POC)”. Further, the IC50 in assay [2] (NCI-H358, 3 h) was over 1 µM.
In the same order, the values of `C=CC(=O)N1CCN(c2nc(O[C@@H]3CCCN(C)C3)nc3c2CCN(c2cc(O)cc4ccccc24)C3)CC1` [Example 67, (R)-1-(4-(7-(3-hydroxynaphthalen-1-yl)-2-((1-methylpiperidin-3-yl)oxy)-5,6,7,8-tetrahydropyrido[3,4-d]pyrimidin-4-yl)piperazin-1-yl)prop-2-en-1-one] are “C (“C”>50% POC)” and 0.0001 to 1 µM.
Consider `C=CC(=O)N1CCN(c2nc(O[C@H](C)CN(C)C)nc3c2CCN(c2cccc4ccccc24)C3)CC1` [Example 68, (R)-1-(4-(2-((1-(dimethylamino)propan-2-yl)oxy)-7-(naphthalen-1-yl)-5,6,7,8-tetrahydropyrido[3,4-d]pyrimidin-4-yl)piperazin-1-yl)prop-2-en-1-one], for which, in assay [1], the POC result is on record as “A (“A”≤25% POC)”. For the same compound, the IC50 in assay [2] (NCI-H358, 3 h) is over 1 µM.
With `C=CC(=O)N1CCN(c2ncnc3c2CCN(c2cncc4ccccc24)C3)CC1` [Example 69, 1-(4-(7-(isoquinolin-4-yl)-5,6,7,8-tetrahydropyrido[3,4-d]pyrimidin-4-yl)piperazin-1-yl)prop-2-en-1-one], the POC result in assay [1] was “A (“A”≤25% POC)”. Moreover, the concentration for half-maximal inhibition (IC50) in assay [2] was over 1 µM.
Take `C=CC(=O)N1CCN(c2nc(OC(C)CNC)nc3c2CCN(c2cc(O)cc4ccccc24)C3)CC1` (stereo not drawn) [Example 70, 1-(4-(7-(3-hydroxynaphthalen-1-yl)-2-((1-(methylamino)propan-2-yl)oxy)-5,6,7,8-tetrahydropyrido[3,4-d]pyrimidin-4-yl)piperazin-1-yl)prop-2-en-1-one]: the POC result in assay [1] was “C (“C”>50% POC)”. Besides, the 50% inhibitory concentration (IC50) in assay [2] (NCI-H358, 3 h) is over 1 µM.
Take `C=CC(=O)N1CCN(c2ncnc3c2CCN(C(CO)c2ccccc2)C3)CC1` (stereo not drawn) [Example 71, 1-(4-(7-(2-hydroxy-1-phenylethyl)-5,6,7,8-tetrahydropyrido[3,4-d]pyrimidin-4-yl)piperazin-1-yl)prop-2-en-1-one]: the POC result in assay [1] is “A (“A”≤25% POC)”. Further, in assay [2], the IC50 is over 1 µM.
In the case of `C=CC(=O)N1CCN(c2nc(OCC3CCCN(C)C3)nc3c2CCN(c2cc(O)cc4ccccc24)C3)CC1` (stereo not drawn) [Example 72, 1-(4-(7-(3-hydroxynaphthalen-1-yl)-2-((1-methylpiperidin-3-yl)methoxy)-5,6,7,8-tetrahydropyrido[3,4-d]pyrimidin-4-yl)piperazin-1-yl)prop-2-en-1-one], in assay [1], the POC result is “C (“C”>50% POC)”. The IC50 in assay [2] (NCI-H358, 3 h) lay within 0.0001 to 1 µM.
`C=CC(=O)N1CCN(c2nc(OCC(C)N(C)C)nc3c2CCN(c2cc(O)cc4ccccc24)C3)CC1` (stereo not drawn) [Example 73, 1-(4-(2-(2-(dimethylamino)propoxy)-7-(3-hydroxynaphthalen-1-yl)-5,6,7,8-tetrahydropyrido[3,4-d]pyrimidin-4-yl)piperazin-1-yl)prop-2-en-1-one]: in assay [1], the POC result was “C (“C”>50% POC)”. Besides, the concentration for half-maximal inhibition (IC50) in assay [2] (NCI-H358, 3 h) is over 1 µM.
The corresponding values for `C=CC(=O)N1CCN(c2nc(OCCCN3CCOCC3)nc3c2CCN(c2cc(O)cc4ccccc24)C3)CC1` [Example 74, 1-(4-(7-(3-hydroxynaphthalen-1-yl)-2-(3-morpholinopropoxy)-5,6,7,8-tetrahydropyrido[3,4-d]pyrimidin-4-yl)piperazin-1-yl)prop-2-en-1-one] are “C (“C”>50% POC)” and 0.0001 to 1 µM.
For the compound `C=CC(=O)N1CCN(c2nc(O[C@H](C)CN3CCCCC3)nc3c2CCN(c2cc(O)cc4ccccc24)C3)CC1` [Example 75, (R)-1-(4-(7-(3-hydroxynaphthalen-1-yl)-2-((1-(piperidin-1-yl)propan-2-yl)oxy)-5,6,7,8-tetrahydropyrido[3,4-d]pyrimidin-4-yl)piperazin-1-yl)prop-2-en-1-one], in assay [1], the POC entry is reported as “C (“C”>50% POC)”. Further, the 50% inhibitory concentration (IC50) in assay [2] (NCI-H358, 3 h) fell in the range of 0.0001 to 1 µM.
Regarding `C=CC(=O)N1CCN(c2nc(O[C@H](C)CN(C)C)nc3c2CCN(c2cc(O)cc(Cl)c2C(C)C)C3)CC1` [Example 76, (R)-1-(4-(7-(3-chloro-5-hydroxy-2-isopropylphenyl)-2-((1-(dimethylamino)propan-2-yl)oxy)-5,6,7,8-tetrahydropyrido[3,4-d]pyrimidin-4-yl)piperazin-1-yl)prop-2-en-1-one], the POC result in assay [1] is reported as “C (“C”>50% POC)”. Further, the IC50 in assay [2] is over 1 µM.
For `C=CC(=O)N1CCN(c2nc(OCCN3C[C@@H]4CC[C@H]3C4)nc3c2CCN(c2cc(O)cc4ccccc24)C3)CC1` [Example 77, 1-(4-(2-(2-((1 S,4R)-2-azabicyclo[2.2.1]heptan-2-yl)ethoxy)-7-(3-hydroxynaphthalen-1-yl)-5,6,7,8-tetrahydropyrido[3,4-d]pyrimidin-4-yl)piperazin-1-yl)prop-2-en-1-one], the POC entry in assay [1] is given as “C (“C”>50% POC)”. In addition, the IC50 in assay [2] (NCI-H358, 3 h) fell in the range of 0.0001 to 1 µM.
As for `C=CC(=O)N1CCN(c2nc(O[C@H](C)CN(C)C)nc3c2CCN(c2cc(O)ccc2OC(F)(F)F)C3)CC1` [Example 78, (R)-1-(4-(2-((1-(dimethylamino)propan-2-yl)oxy)-7-(5-hydroxy-2-(trifluoromethoxy)phenyl)-5,6,7,8-tetrahydropyrido[3,4-d]pyrimidin-4-yl)piperazin-1-yl)prop-2-en-1-one], in assay [1], the POC entry is listed as “C (“C”>50% POC)”. For the same compound, the half-maximal inhibitory concentration (IC50) in assay [2] is over 1 µM.
The corresponding values for `C=CC(=O)N1CCN(c2nc(O[C@H](C)CN(C)C)nc3c2CCN(c2cc(O)ccc2C(F)(F)F)C3)CC1` [Example 79, (R)-1-(4-(2-((1-(dimethylamino)propan-2-yl)oxy)-7-(5-hydroxy-2-(trifluoromethyl)phenyl)-5,6,7,8-tetrahydropyrido[3,4-d]pyrimidin-4-yl)piperazin-1-yl)prop-2-en-1-one] are “A (“A”≤25% POC)” and over 1 µM.
With `C=CC(=O)N1CCN(c2nc(OCC3CN(C)CCN3)nc3c2CCN(c2cc(O)cc4ccccc24)C3)CC1` (stereo not drawn) [Example 80, 1-(4-(7-(3-hydroxynaphthalen-1-yl)-2-((4-methylpiperazin-2-yl)methoxy)-5,6,7,8-tetrahydropyrido[3,4-d]pyrimidin-4-yl)piperazin-1-yl)prop-2-en-1-one], in assay [1], the POC result is “C (“C”>50% POC)”. For the same compound, the IC50 in assay [2] (NCI-H358, 3 h) is over 1 µM.
In the same order, the values of `C=CC(=O)N1CCN(c2nc(OCCN3CCC(C#N)CC3)nc3c2CCN(c2cc(O)cc4ccccc24)C3)CC1` [Example 81, 1-(2-((4-(4-acryloylpiperazin-1-yl)-7-(3-hydroxynaphthalen-1-yl)-5,6,7,8-tetrahydropyrido[3,4-d]pyrimidin-2-yl)oxy)ethyl)piperidine-4-carbonitrile] are “C (“C”>50% POC)” and over 1 µM.
Consider `C=CC(=O)N1CCN(c2nc(OCCCN3CCN(C)CC3)nc3c2CCN(c2cc(O)cc4ccccc24)C3)CC1` [Example 82, 1-(4-(7-(3-hydroxynaphthalen-1-yl)-2-(3-(4-methylpiperazin-1-yl)propoxy)-5,6,7,8-tetrahydropyrido[3,4-d]pyrimidin-4-yl)piperazin-1-yl)prop-2-en-1-one], for which, in assay [1], the POC result is listed as “C (“C”>50% POC)”. Besides, the IC50 in assay [2] (NCI-H358, 3 h) lay within 0.0001 to 1 µM.
The corresponding values for `C=CC(=O)N1CCN(c2nc(OCCN(C)CCO)nc3c2CCN(c2cc(O)cc4ccccc24)C3)CC1` [Example 83, 1-(4-(2-(2-((2-hydroxyethyl)(methyl)amino)ethoxy)-7-(3-hydroxynaphthalen-1-yl)-5,6,7,8-tetrahydropyrido[3,4-d]pyrimidin-4-yl)piperazin-1-yl)prop-2-en-1-one] are “C (“C”>50% POC)” and over 1 µM.
